{
  "source": "patent US20100215710A1",
  "about": "“Beta-2 Adrenergic Receptor Agonists and Antagonists and Modulation of Wound Healing” (The Regents of the University of California, priority 2005, published 2010)",
  "key": {"[1]": {"details": "cited from earlier work"}, "[2]": {"tested_on": "human keratinocytes", "assay": "Scratch assay, confluent keratinocyte cultures (clenbuterol)", "format": "cell-based", "details": "1 μM clenbuterol", "procedure": "Human keratinocytes were isolated from neonatal foreskins as reported previously (Isseroff et al. (1987) Conversion of linoleic acid into arachidonic acid by cultured murine and human keratinocytes. J Lipid Res 28:1342-1349) and cultured using a modification of the method of Rheinwald and Green (Rheinwald and Green (1975) Serial cultivation of strains of human epidermal keratinocytes: the formation of keratinizing colonies from single cells. Cell 6:331-343). […]\nCells were grown to confluence on cover-slips (Fisher Scientific, Pittsburgh, Pa.) coated with 60 μg/ml Collagen I (Vitrogen 100, Collagen Corp., Palo Alto, Calif.). […] The area of the wound was determined using NIH Image 1.6 and the percent wound healing calculated by dividing the area of the wound at time X by the area of the wound at time 0 and multiplying by 100. […]\nKeratinocytes were grown to confluence on collagen-coated glass cover-slips in the absence (control) or presence of 1 μM clenbuterol. […] Representative photographs of images at time 40 hours are shown in FIG. 1 Panel A. The percent wound healing was calculated and is represented graphically in FIG. 1 Panel B; control wounds are indicated by circles, clenbuterol treated by squares. […]"}, "[3]": {"tested_on": "human keratinocytes", "assay": "Single cell migration assay, keratinocytes (clenbuterol, OA)", "format": "cell-based", "details": "1 μM clenbuterol, one-hour period, vs control", "procedure": "All single cell migration assays were performed on cells plated on glass cover-slips inserted into 35 mm plastic dishes (MatTek Corp., Ashland, Mass.) that had been coated for 1 hour at 37° C. with 60 μg/ml collagen L Cells were plated onto the collagen-coated glass cover-slips at a density of 250 cells/mm^2 for 3-6 hours at 37° C. Cells were either untreated (control), pre-treated with 10 nM okadaic acid (OA) (10 nM) for 45 minutes prior to the addition of OA (10 nM) and clenbuterol (1 μM) (OA/Clen) or treated with either OA or clenbuterol (1 μM) alone at time 0. The dishes were inserted into metal plates, maintained at 37° C., on inverted Nikon Diaphot microscopes to monitor single cell migration. Time-lapse images of the cell migratory response were digitally captured every 10 minutes over a one-hour period by Q-Imaging Retiga-EX cameras (Burnaby, BC, Canada) controlled by a custom automation written in Improvision Open Lab software (Lexington, Mass.) on a Macintosh G4. After each cell's center of mass was tracked using the Open Lab software, migration speed and distance were calculated and imported to Excel (Microsoft Corporation, Redmond, Wash.). Significance was taken as p<0.01, using Student's t test (unpaired) to compare the means of the control and β-AR agonist-treated cell populations.\nKeratinocytes were plated onto collagen-coated glass cover-slips at a concentration of 250 cells/mm^2 in KGM for 3-6 hours at 37° C. The migration of each single cell was monitored over a one-hour period, and the results were analyzed in excel as described. The speed of migration ([…]) is represented graphically in FIG. 1 Panel C, control n=57, clenbuterol n=57, OA n=60, OA-clenbuterol n=44. The data are representative of three independent experiments with at least two different keratinocyte strains. * P<0.01 between β-AR agonist and controls; #P<0.01 between OA-clenbuterol and clenbuterol alone."}, "[4]": {"tested_on": "cultured human keratinocytes", "assay": "Keratinocyte migratory speed with epinephrine at post-burn levels", "format": "cell-based", "from_the_text": "(§1) Since burn wounded patients have elevated levels of the circulating β2-AR activator epinephrine, whether blockade of β2-ARs increases keratinocyte migration and has the potential to accelerate burn wound re-epithelialization was examined."}, "[5]": {"tested_on": "human keratinocytes", "assay": "Scratch wounding of confluent keratinocytes with epinephrine", "format": "cell-based", "from_the_text": "as §1"}, "[6]": {"tested_on": "human skin wounds", "assay": "Human skin wound healing assay (explant culture, 10% serum)", "format": "cell-based", "details": "isoproterenol-treated wounds", "from_the_text": "A wound healing model developed by Kratz (Kratz (1998) Modeling of wound healing processes in human skin using tissue culture. Microsc Res Tech 42:345-350) was adapted. Normal human skin was obtained from routine breast reductions or abdominoplasties under an approved exemption granted by the Internal Review Board at University of California, Davis. Under sterile conditions, excess subcutaneous fat was trimmed from 6″×3″ sections of skin prior to stretching and pinning onto sterile cork board. A 3 mm punch (Sklar Instruments, West Chester, Pa.) was used to make wounds in the epidermis and into the superficial dermis and the 3 mm discs of skin were excised using sterile scissors. 6 mm skin discs, with the 3 mm epidermal wound in the center, were excised using a 6 mm biopsy punch (SMS Inc., Columbia, Md.). […] Re-epithelialization was determined using light microscopy. […] Measuring the linear distance covered by new epithelium and dividing that by the linear distance between the original wound edges determined the percentage of re-epithelialization. […]\nWounds, 3 mm in diameter, were generated in excised human skin, cultured in the presence or absence of 10 μM isoproterenol, fixed and stained every day after wounding as described. Re-epithelialization was determined using light microscopy. […]"}, "[7]": {"tested_on": "corneal epithelial wounds", "assay": "Corneal epithelial wound healing in vivo in β2-AR +/+ or −/− mice", "procedure": "Using male β2-AR +/+ or β2-AR −/− mice, 2 mm diameter circular corneal epithelial wounds (OD) were created using a crescent blade. The corneas were treated topically with Balanced Salt Solution (BSS), BSS with 1% isoproterenol, or BSS with 0.5% timolol, and the wound healing was monitored stereomicroscopically using fluorescein."}, "[8]": {"tested_on": "human skin burn wounds", "assay": "Ex vivo model of burn wound healing in excised human skin", "format": "cell-based", "details": "for burn wound re-epithelialization status: 10 μm, day ten after the burn wound, control did not fully re-epithelialize", "procedure": "An ex vivo model of burn wound healing was developed. A heated brass rod was applied to excised human skin, obtained and maintained basically as described above in Example 1. Burn wounds were treated with β-AR agonist (10 μm isoproterenol) or β-AR antagonist (10 μm timolol). […] Images were taken at 40× magnification."}, "[9]": {"tested_on": "β2-AR", "assay": "Western blot of β2-AR in scratch wounded keratinocyte cultures", "format": "cell-based, human", "details": "addition of timolol", "from_the_text": "as §1"}},
  "data": [
    {"smiles": "CC(C)(C)NCC(O)COc1cccc2c1CC(O)C(O)C2", "note": "(stereo not shown) [Nadolol, nadolol]", "values": [
      {"measurement": "lipid solubility", "setting": "[1]", "result": "low"}
    ]},
    {"smiles": "CC(C)(C)NCC(O)c1cc(Cl)c(N)c(Cl)c1", "note": "(stereo not shown) [clenbuterol]", "values": [
      {"measurement": "time required for scratch wounds to heal", "setting": "[2]", "result": "significantly increases"},
      {"measurement": "percent wound healing of scratch wounds", "setting": "[2]; 40 hours after wounding, control wounds completely healed", "result": 40, "unit": "%"},
      {"measurement": "reduction of keratinocyte migratory speed", "setting": "[3]", "result": 45, "unit": "%"}
    ]},
    {"smiles": "CNC[C@H](O)c1ccc(O)c(O)c1", "note": "[epinephrine]", "values": [
      {"measurement": "decrease in keratinocyte migratory speed", "setting": "[4]; epinephrine 10 nM", "result": 75, "unit": "%"},
      {"measurement": "reduction of scratch wound healing", "setting": "[5]; epinephrine pretreatment", "result": 70, "unit": "%"}
    ]},
    {"smiles": "CC(C)NCC(O)c1ccc(O)c(O)c1", "note": "(stereo not shown) [isoproterenol]", "values": [
      {"measurement": "re-epithelialization of human skin wounds", "setting": "[6]", "result": "significant delay"},
      {"measurement": "delay of wound healing (rate, linear phase)", "setting": "[7]; β2-AR +/+ mice, topical BSS with 1% isoproterenol", "result": "~80", "unit": "%"},
      {"measurement": "delay of wound healing", "setting": "[7]; β2-AR −/− mice, topical BSS with 1% isoproterenol", "result": "but not in β2-AR −/− mice"},
      {"measurement": "delay of re-epithelialization", "setting": "[8]; 10 μm isoproterenol, day ten after the burn", "result": 14, "unit": "%"},
      {"measurement": "burn wound re-epithelialization status", "setting": "[8]", "result": "did not fully re-epithelialize"}
    ]},
    {"smiles": "CC(C)(C)NC[C@H](O)COc1nsnc1N1CCOCC1", "note": "[timolol]", "values": [
      {"measurement": "rate of healing", "setting": "[7]; β2-AR +/+ mice, topical BSS with 0.5% timolol", "result": "increased the rate of healing significantly"},
      {"measurement": "increase in rate of healing", "setting": "[7]; β2-AR −/− mice, topical BSS with 0.5% timolol", "result": "but not in β2-AR −/− mice"},
      {"measurement": "migratory speed of epinephrine-treated keratinocytes", "setting": "[4]; timolol 10 μM added to epinephrine 10 nM", "result": "restored the migratory speed to control levels"},
      {"measurement": "acceleration of scratch wound healing", "setting": "[5]; timolol added to epinephrine", "result": 20, "unit": "%"},
      {"measurement": "effect on epinephrine-reduced scratch wound healing", "setting": "[5]; timolol added to epinephrine", "result": "reversed the effects of epinephrine"},
      {"measurement": "β2-AR downregulation one hour after the scratch", "setting": "[9]", "result": "delayed"},
      {"measurement": "enhancement of re-epithelialization", "setting": "[8]; 10 μm timolol, day ten after the burn", "result": 37, "unit": "%"},
      {"measurement": "burn wound re-epithelialization status", "setting": "[8]", "result": "fully re-epithelialized"}
    ]}
  ]
}
